Twelve molecules from PubChem BioAssay (NCI) can be followed below.

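In this assay, cells in 96-well plates receive the compound at five concentrations for 48 hours. Endpoints are linearly interpolated between the surrounding concentrations. Here, GI50 denotes the concentration required for 50% inhibition of growth. TGI marks complete inhibition of growth.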

Test systems include A549 NSCLC; HCT-15 colon; K-562 leukemia; KM20L2 colon; LXFL 529 NSCLC; OVCAR-8 ovarian; SF-295 CNS; SK-MEL-2 melanoma; SNB-19 CNS; BT-549 breast.
What all share (assay): NCI tumour cell line growth inhibition, 48 h

Consider `Nc1nc(Cl)cc(NCCCCCNc2cc(Cl)nc(N)n2)n1`, for which the TGI with A549 NSCLC, in the test with HCT-15 colon, with K-562 leukemia, in the test on KM20L2 colon, in the test on LXFL 529 NSCLC and in the test on OVCAR-8 ovarian was more than 100 µM each time. Moreover, the TGI in the test with SF-295 CNS, in the test on SK-MEL-2 melanoma and in the test on SNB-19 CNS was more than 100 µM in each case.

Take `N.N.N.N.O=NN1CCCCCC1(P(=O)([O-])[O-])P(=O)([O-])[O-].[Pt+4].[Pt+4]`: the GI50 in the test on A549 NSCLC, with HCT-15 colon, in the test with K-562 leukemia, in the test on KM20L2 colon, in the test with LXFL 529 NSCLC and in the test on OVCAR-8 ovarian was more than 100 µM in each case. For the same molecule, the GI50 is more than 100 µM with SF-295 CNS, 79.6 µM in the test with SK-MEL-2 melanoma and more than 100 µM in the test on SNB-19 CNS. The TGI with A549 NSCLC, in the test with HCT-15 colon, in the test on K-562 leukemia, in the test on KM20L2 colon, with LXFL 529 NSCLC and in the test on OVCAR-8 ovarian was more than 100 µM throughout. The TGI in the test with SF-295 CNS, in the test with SK-MEL-2 melanoma and with SNB-19 CNS was more than 100 µM in each case.

Regarding `COc1cccc(NC(=O)C(C)(C)C)c1C=O`, the TGI with A549 NSCLC, in the test on HCT-15 colon, in the test with K-562 leukemia, with KM20L2 colon, in the test with LXFL 529 NSCLC and in the test on OVCAR-8 ovarian was more than 100 µM throughout. Further, the TGI in the test on SF-295 CNS, in the test on SK-MEL-2 melanoma and in the test with SNB-19 CNS was more than 100 µM each time.

Take `CC1=C(C(=O)Nc2ccccc2)C(c2ccc([N+](=O)[O-])cc2)C(C(=O)Nc2ccccc2)=C(C)N1`: the TGI is more than 100 µM with A549 NSCLC; 50.9 µM in the test with HCT-15 colon; 63.5 µM in the test on K-562 leukemia; 35.3 µM with KM20L2 colon; 46.5 µM in the test with LXFL 529 NSCLC; 35.8 µM in the test on OVCAR-8 ovarian. Further, the figures for the TGI in the test on SF-295 CNS, in the test on SK-MEL-2 melanoma and with SNB-19 CNS were more than 100 µM, 31.4 µM and 32 µM, respectively.

Turning to `O=C(NCCO)c1cc2c(cn1)[nH]c1ccccc12`, the TGI in the test with A549 NSCLC, in the test on HCT-15 colon, in the test with K-562 leukemia, in the test with KM20L2 colon, in the test with LXFL 529 NSCLC and in the test on OVCAR-8 ovarian was more than 100 µM throughout. In addition, the values for the TGI in the test on SF-295 CNS, with SK-MEL-2 melanoma and in the test with SNB-19 CNS were more than 100 µM, 33.6 µM and more than 100 µM, respectively.

Turning to `C=CCCCn1ccc2ccccc21`, the TGI in the test on A549 NSCLC, in the test on HCT-15 colon, in the test on K-562 leukemia, in the test on KM20L2 colon, in the test with LXFL 529 NSCLC and in the test on OVCAR-8 ovarian was more than 100 µM in each case. Besides, the TGI in the test with SF-295 CNS, with SK-MEL-2 melanoma and with SNB-19 CNS was more than 100 µM each time.

`CCCCCCCCCCCCCCCCOCC(CN(C)CCN(C)C)OCCCCCCCCCCCCCCCC` (configuration not stated): the TGI in the test with A549 NSCLC, with HCT-15 colon, with K-562 leukemia, with KM20L2 colon, in the test on LXFL 529 NSCLC and in the test with OVCAR-8 ovarian was more than 100 µM throughout. Moreover, the TGI with SF-295 CNS, in the test on SK-MEL-2 melanoma and in the test with SNB-19 CNS was more than 100 µM in each case.

Regarding `O=C(O)C1=C(C(=O)Nc2ccccc2)C2C=CC1C2` (configuration not stated), the TGI in the test with A549 NSCLC, in the test on HCT-15 colon, in the test with K-562 leukemia, with KM20L2 colon, in the test on LXFL 529 NSCLC and in the test with OVCAR-8 ovarian was more than 100 µM each time. Further, the TGI in the test on SF-295 CNS and with SNB-19 CNS was more than 100 µM each time.

For `CC(=O)[O-].CC(=O)[O-].O=C(N/N=C/c1cc(Cl)cc(Cl)c1O)c1ccncc1.[Ni+2]`, the TGI is more than 100 µM in the test on A549 NSCLC; more than 100 µM in the test with HCT-15 colon; more than 100 µM in the test on K-562 leukemia; more than 100 µM in the test on KM20L2 colon; more than 100 µM in the test with OVCAR-8 ovarian; 67.2 µM in the test with SF-295 CNS. The TGI with SK-MEL-2 melanoma is 87.4 µM; in the test on SNB-19 CNS it was more than 100 µM. Further, the GI50 with SK-MEL-2 melanoma was 46.6 µM.

Take `Cc1ccc(-n2c3nc(=O)n(C)c(=O)c-3nc3ccccc32)cc1`: the TGI was 30.2 µM with A549 NSCLC; 23.7 µM in the test with HCT-15 colon; 53.7 µM in the test with K-562 leukemia; 26.3 µM with KM20L2 colon; more than 100 µM with LXFL 529 NSCLC; 51.8 µM in the test with OVCAR-8 ovarian. For the same molecule, the figures for the TGI with SF-295 CNS, in the test with SK-MEL-2 melanoma and in the test on SNB-19 CNS were 46.5 µM, 37.2 µM and 33.5 µM, respectively.

With `CC1=C(C(=O)Nc2ccccc2C)C(c2ccc(C3C(C(=O)Nc4ccccc4C)=C(C)NC(C)=C3C(=O)Nc3ccccc3C)cc2)C(C(=O)Nc2ccccc2C)=C(C)N1`, the TGI in the test with A549 NSCLC amounted to 27.8 µM; with BT-549 breast, 11.5 µM; with HCT-15 colon, 23.5 µM; with K-562 leukemia it was 25.4 µM; with KM20L2 colon, 12.9 µM; with LXFL 529 NSCLC it was 10.5 µM. Also, the TGI was 8.57 µM in the test on OVCAR-8 ovarian, 17.1 µM with SF-295 CNS, 31.6 µM in the test on SK-MEL-2 melanoma and 29.4 µM in the test with SNB-19 CNS.

Consider `O=C1Nc2cc(Cl)ccc2N=CC1NC(=O)C(c1ccccc1)c1ccccc1Cl` (configuration not stated), for which the TGI with A549 NSCLC, with HCT-15 colon, in the test on K-562 leukemia, with KM20L2 colon, with LXFL 529 NSCLC and with OVCAR-8 ovarian was more than 100 µM throughout. Moreover, the TGI in the test with SF-295 CNS, with SK-MEL-2 melanoma and in the test on SNB-19 CNS was more than 100 µM in each case.
